The numbers were not newly measured in patent publication US20240264148A1, “SYSTEM AND METHOD OF IDENTIFYING BIOMARKERS FOR CHEMO-RESISTANCE IN CANCER AND IDENTIFYING TARGETS THAT CAN REVERSE CHEMO-RESISTANCE IN CANCER” (OROC, priority 2019, published 2024), which cites them from elsewhere.

For the series, the system named is recurrent ovarian cancer. Conditions: patients.

For `Cc1nc(Nc2ncc(C(=O)Nc3c(C)cccc3Cl)s2)cc(N2CCN(CCO)CC2)n1` [Dasatinib], the safety and tolerability entry is “safe to use as a drug with good tolerability”.
